Data taken from ChEMBL document CHEMBL1201862, “PubChem BioAssay data set” (2004).
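Test compounds were applied to cells in 96-well plates for 48 hours at 5 doses. GI50 marks 50% less growth.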 Active and inactive are the calls of the source. No stated cut-off is given here; in the data, active = GI50 up to about 1.1 µM and inactive = higher.

Assays:
Assay in all cases: inhibition of tumour cell growth, NCI panel, 48 h
BT-549 = system: BT-549
MDA-MB-231 = system: MDA-MB-231
LOX IMVI = system: LOX IMVI
RXF 393 = system: RXF 393
COLO 205 = system: COLO 205
T47D = system: T47D
UO-31 = system: UO-31
K562 = system: K562
MDA-N = system: MDA-N
MCF7 = system: MCF7
SK-OV-3 = system: SK-OV-3
NCI-H226 = system: NCI-H226
OVCAR-3 = system: OVCAR-3
OVCAR-4 = system: OVCAR-4
MOLT-4 = system: MOLT-4
M14 = system: M14
Hs-578T = system: Hs-578T
HCC 2998 = system: HCC 2998
MDA-MB-435 = system: MDA-MB-435
HL-60 = system: HL-60

| Structure (SMILES) | GI50 (BT-549) | GI50 (MDA-MB-231) | GI50 (LOX IMVI) | GI50 (RXF 393) | GI50 (COLO 205) | GI50 (T47D) | GI50 (UO-31) | GI50 (K562) | GI50 (MDA-N) | GI50 (MCF7) | GI50 (SK-OV-3) | GI50 (NCI-H226) | GI50 (OVCAR-3) | GI50 (OVCAR-4) | GI50 (MOLT-4) | GI50 (M14) | GI50 (Hs-578T) | GI50 (HCC 2998) | GI50 (MDA-MB-435) | GI50 (HL-60) |
| --- | --- | --- | --- | --- | --- | --- | --- | --- | --- | --- | --- | --- | --- | --- | --- | --- | --- | --- | --- | --- |
| CCc1c(O)c2c(c(O)c1C(C)=O)C(=O)c1c(cc(O)c(C(=O)O)c1C(=O)O)C2=O | > 100 µM (inactive) | > 100 µM (inactive) | > 100 µM (inactive) | > 100 µM (inactive) | > 100 µM (inactive) | > 100 µM (inactive) | > 100 µM (inactive) | > 100 µM (inactive) | > 100 µM (inactive) | > 100 µM (inactive) | > 100 µM (inactive) | > 100 µM (inactive) | > 100 µM (inactive) | > 100 µM (inactive) | > 100 µM (inactive) | > 100 µM (inactive) | > 100 µM (inactive) | > 100 µM (inactive) | > 100 µM (inactive) |  |
| O=c1[nH]nc(-c2ccccc2)n1-n1cccc1 | > 100 µM (inactive) | > 100 µM (inactive) | > 100 µM (inactive) | > 100 µM (inactive) | > 100 µM (inactive) | > 100 µM (inactive) | > 100 µM (inactive) | > 100 µM (inactive) | > 100 µM (inactive) | > 100 µM (inactive) | > 100 µM (inactive) | > 100 µM (inactive) | > 100 µM (inactive) | > 100 µM (inactive) | 35.6 µM (inactive) | > 100 µM (inactive) | > 100 µM (inactive) | > 100 µM (inactive) | > 100 µM (inactive) |  |
| O=[N+]([O-])c1ccc(Cl)cc1N/N=C/c1ccnc2ccccc12 | > 100 µM (inactive) | > 100 µM (inactive) |  | 36.9 µM (inactive) | > 100 µM (inactive) | > 100 µM (inactive) | > 100 µM (inactive) | > 100 µM (inactive) | > 100 µM (inactive) | > 100 µM (inactive) | > 100 µM (inactive) | > 100 µM (inactive) | > 100 µM (inactive) | > 100 µM (inactive) | > 100 µM (inactive) | > 100 µM (inactive) | 52.4 µM (inactive) | > 100 µM (inactive) | 97.3 µM (inactive) | > 100 µM (inactive) |
| CN(C1=NCCO1)c1cccc2c1CCCC2 | 9.53 µM (inactive) | 1.73 µM (inactive) | 2.58 µM (inactive) | 3.64 µM (inactive) | 1.89 µM (inactive) | 8.85 µM (inactive) |  | 4.78 µM (inactive) | 5.18 µM (inactive) | 4.51 µM (inactive) | 4.71 µM (inactive) | 1.44 µM (inactive) |  | 3.05 µM (inactive) | 1.77 µM (inactive) | 2.23 µM (inactive) | 8.15 µM (inactive) | 3.79 µM (inactive) | 3.64 µM (inactive) | 4.41 µM (inactive) |
| c1cc(-c2ccc(-c3ccc(-c4ccc(-c5cccc6nsnc56)[nH]4)c4nsnc34)[nH]2)c2nsnc2c1 | > 100 µM (inactive) | > 100 µM (inactive) | > 100 µM (inactive) |  | > 100 µM (inactive) | > 100 µM (inactive) | > 100 µM (inactive) | > 100 µM (inactive) | > 100 µM (inactive) | > 100 µM (inactive) | > 100 µM (inactive) | > 100 µM (inactive) | > 100 µM (inactive) | > 100 µM (inactive) | > 100 µM (inactive) | > 100 µM (inactive) | > 100 µM (inactive) | > 100 µM (inactive) | > 100 µM (inactive) | 1.53 µM (inactive) |
| Cc1nn(C(=O)c2ccncc2)c2c1C(c1ccc([N+](=O)[O-])cc1)SC(=N)N2 (centres undefined) | > 100 µM (inactive) | > 100 µM (inactive) | > 100 µM (inactive) | > 100 µM (inactive) | > 100 µM (inactive) | > 100 µM (inactive) | > 100 µM (inactive) | > 100 µM (inactive) | > 100 µM (inactive) | > 100 µM (inactive) | > 100 µM (inactive) | > 100 µM (inactive) | > 100 µM (inactive) | > 100 µM (inactive) | > 100 µM (inactive) | > 100 µM (inactive) | > 100 µM (inactive) |  | > 100 µM (inactive) | > 100 µM (inactive) |
| CCOC(=O)Cc1c(C)c2cc(C(=O)c3ccccc3)c(O)cc2oc1=O | 17.8 µM (inactive) | 23.8 µM (inactive) | 30.3 µM (inactive) | 41.1 µM (inactive) | 18.5 µM (inactive) | 28.2 µM (inactive) |  | 24.7 µM (inactive) | 33.3 µM (inactive) | 22.4 µM (inactive) |  | 27.3 µM (inactive) | 17.8 µM (inactive) | 31.8 µM (inactive) | 36.1 µM (inactive) | 34.3 µM (inactive) | 26.2 µM (inactive) | 32.6 µM (inactive) | 33 µM (inactive) | 24.4 µM (inactive) |
| CN1CCN(C(=S)N(C)C(=O)c2ccc(Cl)cc2)CC1 | > 100 µM (inactive) | > 100 µM (inactive) | > 100 µM (inactive) | > 100 µM (inactive) | > 100 µM (inactive) | > 100 µM (inactive) | > 100 µM (inactive) | > 100 µM (inactive) | > 100 µM (inactive) | > 100 µM (inactive) |  | > 100 µM (inactive) | > 100 µM (inactive) | > 100 µM (inactive) | > 100 µM (inactive) | > 100 µM (inactive) | > 100 µM (inactive) | > 100 µM (inactive) | > 100 µM (inactive) | > 100 µM (inactive) |
| Nc1c(C(=O)O)c2ccc([N+](=O)[O-])cc2c(=O)n1-c1nc2ccccc2s1 | > 100 µM (inactive) | > 100 µM (inactive) | > 100 µM (inactive) | > 100 µM (inactive) | > 100 µM (inactive) | > 100 µM (inactive) | > 100 µM (inactive) | > 100 µM (inactive) | > 100 µM (inactive) | > 100 µM (inactive) | > 100 µM (inactive) | > 100 µM (inactive) | > 100 µM (inactive) | > 100 µM (inactive) | > 100 µM (inactive) | > 100 µM (inactive) | > 100 µM (inactive) | > 100 µM (inactive) | > 100 µM (inactive) |  |
| CCOC(=O)C1=CC(C)(C(=O)OCC)Nc2c(nc(SC)[nH]c2=O)N1 (centres undefined) | > 10 µM (inactive) | > 10 µM (inactive) | > 10 µM (inactive) | > 10 µM (inactive) | > 10 µM (inactive) | > 10 µM (inactive) | > 10 µM (inactive) | > 10 µM (inactive) | > 10 µM (inactive) | > 10 µM (inactive) | > 10 µM (inactive) | > 10 µM (inactive) | > 10 µM (inactive) | > 10 µM (inactive) | > 10 µM (inactive) | > 10 µM (inactive) | > 10 µM (inactive) | > 10 µM (inactive) | > 10 µM (inactive) |  |
| O=C1NC(=S)NC(=O)C1C(c1ccc([N+](=O)[O-])cc1)C1C(=O)NC(=S)NC1=O.c1ccncc1 | > 100 µM (inactive) | > 100 µM (inactive) | > 100 µM (inactive) | > 100 µM (inactive) | > 100 µM (inactive) | > 100 µM (inactive) | > 100 µM (inactive) | > 100 µM (inactive) | > 100 µM (inactive) | > 100 µM (inactive) |  | > 100 µM (inactive) | > 100 µM (inactive) | > 100 µM (inactive) | > 100 µM (inactive) | > 100 µM (inactive) | > 100 µM (inactive) |  | > 100 µM (inactive) | > 100 µM (inactive) |
| CCOC(=O)/C(C#N)=C/N(CC)/N=C/c1ccccc1 | > 100 µM (inactive) | > 100 µM (inactive) |  | 97.3 µM (inactive) | > 100 µM (inactive) | > 100 µM (inactive) | > 100 µM (inactive) | > 100 µM (inactive) | > 100 µM (inactive) | > 100 µM (inactive) | > 100 µM (inactive) | > 100 µM (inactive) | > 100 µM (inactive) | > 100 µM (inactive) | > 100 µM (inactive) | > 100 µM (inactive) | 54.7 µM (inactive) | > 100 µM (inactive) | > 100 µM (inactive) | > 100 µM (inactive) |
| CSc1nc2c(c(N3CCOCC3)n1)C(O)n1c(nc3ccccc31)S2 (centres undefined) | 30.5 µM (inactive) | 50.2 µM (inactive) | > 100 µM (inactive) | 80.4 µM (inactive) | 0.055 µM (active) | 25.9 µM (inactive) | 3.93 µM (inactive) |  | > 100 µM (inactive) | 23 µM (inactive) | 96.2 µM (inactive) |  | 69.2 µM (inactive) | 41 µM (inactive) | > 100 µM (inactive) | > 100 µM (inactive) | 23.7 µM (inactive) | > 100 µM (inactive) | 95.3 µM (inactive) | > 100 µM (inactive) |
| CCOC1CC(C)N(C(=O)c2ccccc2)O1 (centres undefined) | > 100 µM (inactive) | > 100 µM (inactive) |  | > 100 µM (inactive) |  | > 100 µM (inactive) | > 100 µM (inactive) | > 100 µM (inactive) | > 100 µM (inactive) | > 100 µM (inactive) | > 100 µM (inactive) | > 100 µM (inactive) | > 100 µM (inactive) |  | > 100 µM (inactive) | > 100 µM (inactive) | > 100 µM (inactive) | > 100 µM (inactive) | > 100 µM (inactive) | > 100 µM (inactive) |
| COc1ccc2c(c1OC)C(=O)O[C@@H]2[C@H]1c2c(cc3c(c2OC)OCO3)CCN1C [NOSCAPINE] | 45.7 µM (inactive) | 76.6 µM (inactive) | 37.2 µM (inactive) | > 100 µM (inactive) | 63.5 µM (inactive) | > 100 µM (inactive) | 69 µM (inactive) | 33 µM (inactive) | 23.1 µM (inactive) | 42.3 µM (inactive) | 73.1 µM (inactive) | > 100 µM (inactive) | 16.5 µM (inactive) | > 100 µM (inactive) | 23.5 µM (inactive) | 39.2 µM (inactive) | 21.1 µM (inactive) | 79.4 µM (inactive) | 4.86 µM (inactive) |  |
